The values that follow are results of earlier work, collected in patent US5739336A, “1,3,8-triaza- and 3,8-diaza-1-oxaspiro [4,5] decane derivatives” (Syntex (U.S.A.) Inc., priority 1996, dated 1998).

Each structure is given as a SMILES string.

The test system of data set [1] is rats.
For data set [2], the system named is migraine. The following applies: human, in vivo.
Data set [3] concerns abstaining alcoholics.
The test system of data set [4] is panic disorder patients or obsessive compulsive disorder patients.
Data set [5] concerns rat. The following applies: SI and elevated X-maze models.
In data set [6] the test system is human volunteers.
Data set [7] concerns rats. This is another data set of the same source.
The test system of data set [8] is human volunteers. The following applies: for slow wave sleep (SWS): human/healthy volunteers.
Data set [9] deals with human volunteers. The source holds these as a separate data set.
Data set [10] deals with rat models of addiction.
Data set [11] relates to chronic alcoholics.
Data set [12] has as its system patients withdrawing from other drugs of abuse.

Regarding `O=C(c1ccc(F)cc1)C1CCN(CCn2c(=O)[nH]c3ccccc3c2=O)CC1` [ketanserin], the alcohol preference result in [1] is “has no affect on preference for alcohol”. In addition, the “clinical effectiveness as antimigraine agent” value in data set [2] is on record as “is not”.

On to `Clc1cccc(N2CCNCC2)c1` [mCPP, 1-(3-chlorophenyl)piperazine], for which the craving for alcohol result in data set [3] is on record as “induces a craving for alcohol”. The “levels of panic and/or anxiety” value in data set [4] was “increases levels of panic and/or anxiety”. The anxiogenic effects result in data set [5] was “produces anxiogenic effects”. The anxiety on administration result in data set [6] is recorded as “causes anxiety”. The penile erections entry in data set [7] is given as “produces penile erections in rats”. In addition, in data set [8] (human volunteers), the “rapid eye movement sleep” value is “reduces total sleep time, sleep efficiency, slow wave sleep (SWS) and rapid eye movement sleep”; the sleep efficiency entry is “reduces total sleep time, sleep efficiency”; the total sleep time entry is given as “reduces total sleep time”. Besides, the “slow wave sleep (SWS)” value in data set [8] is “reduces total sleep time, sleep efficiency, slow wave sleep (SWS)”. Also, the migraine-like headaches entry in data set [9] was “causes migraine-like headaches”.

Consider `Cc1nc2sccn2c(=O)c1CCN1CCC(=C(c2ccc(F)cc2)c2ccc(F)cc2)CC1` [ritanserin], for which the “cocaine and fentanyl preference” value in [10] is “reduces both cocaine and fentanyl preference”. For the same compound, the alcohol intake entry in [11] was “decreases alcohol intake”. In addition, the “usefulness in withdrawal from other drugs of abuse” value in [12] is “is useful in patients withdrawing from other drugs of abuse”. The alcohol preference entry in data set [1] is “reduces alcohol preference”. Also, in data set [8] (healthy volunteers), the sleep onset latency entry is “reduces sleep onset latency” and the subjective sleep quality entry is listed as “improves subjective sleep quality”. For the same compound, the “slow wave sleep (SWS)” value in [8] was “increases SWS”.
